Assay results as given in US20250092069A1, “SILYL-LIPID CA[…] ENHANCED BIOLOGICAL ACTIVITY” (The Regents of the University of California, priority 2022, published 2025).

Key:
[1] = molecular target: T1, CB1 (Homo sapiens, UniProt P21554); assay: CB1 β-arrestin recruitment antagonist assay (Eurofin's); assay type: cell-based; details: antagonist mode, 0.016 μM CP55940; for IC50: β-arrestin recruitment, read-out: RC50 (IC50), antagonist, CB1
Source text: (§1) For antagonist assays, data was normalized to the maximal and minimal response observed in the presence of EC80 ligand and vehicle.

[2] = molecular target: T2, CB2 (Homo sapiens, UniProt P34972); assay: CB2 β-arrestin recruitment antagonist assay (Eurofin's); assay type: cell-based; details: antagonist mode, 0.0053 μM CP55940; for IC50: β-arrestin recruitment, read-out: RC50 (IC50), antagonist, CB2
Source text: as §1

[3] = molecular target: T1, CB1; assay: CB1 β-arrestin recruitment agonist assay (Eurofin's); assay type: cell-based; details: agonist mode; for EC50: read-out: RC50 (EC50), agonist, CB1
[4] = molecular target: T2, CB2; assay: CB2 β-arrestin recruitment agonist assay (Eurofin's); assay type: cell-based; details: for Emax / EC50: β-arrestin recruitment, agonist mode; for EC50: read-out: RC50 (EC50), agonist, CB2
[5] = test system: TNF-α release; details: at 30 min, LPS-induced model; cited from earlier work
[6] = cited from earlier work
[7] = normalized to response with EC80 ligand and vehicle

T1 sequence (P21554 whole entry): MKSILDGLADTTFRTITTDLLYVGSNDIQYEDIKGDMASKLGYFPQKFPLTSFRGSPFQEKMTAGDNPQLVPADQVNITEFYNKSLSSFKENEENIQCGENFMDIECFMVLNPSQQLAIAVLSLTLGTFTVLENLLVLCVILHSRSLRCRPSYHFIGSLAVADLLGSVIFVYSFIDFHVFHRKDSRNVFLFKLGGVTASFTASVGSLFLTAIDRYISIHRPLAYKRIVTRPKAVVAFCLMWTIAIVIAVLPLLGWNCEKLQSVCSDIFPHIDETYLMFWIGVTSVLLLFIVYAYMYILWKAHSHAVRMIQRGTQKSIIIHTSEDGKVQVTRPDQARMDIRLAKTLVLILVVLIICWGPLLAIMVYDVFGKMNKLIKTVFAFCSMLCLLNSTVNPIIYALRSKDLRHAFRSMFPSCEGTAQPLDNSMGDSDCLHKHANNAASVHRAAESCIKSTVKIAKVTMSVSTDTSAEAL
T2 sequence (P34972 whole entry): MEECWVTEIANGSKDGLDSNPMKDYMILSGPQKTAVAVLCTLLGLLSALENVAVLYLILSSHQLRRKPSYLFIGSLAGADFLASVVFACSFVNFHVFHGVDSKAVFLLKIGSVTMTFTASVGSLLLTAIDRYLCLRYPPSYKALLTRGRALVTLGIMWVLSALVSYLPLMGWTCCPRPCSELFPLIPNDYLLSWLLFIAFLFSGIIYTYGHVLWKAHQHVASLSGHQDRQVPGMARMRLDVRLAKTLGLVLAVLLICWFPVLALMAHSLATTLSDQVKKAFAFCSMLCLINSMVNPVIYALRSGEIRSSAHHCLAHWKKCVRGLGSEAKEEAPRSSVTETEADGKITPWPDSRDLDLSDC

## C=C(C)[C@H]1CCC(C)=C[C@@H]1c1c(O)cc([Si](C)(C)CCCCCC)cc1O [AAC-01]
[1]; [7]
  Emax: 86.4%
[1]
  IC50: 2070 nM
[2]; [7]
  Emax: 69.7%
[2]
  IC50: 1870 nM
[3]
  Emax: 64.8%
  EC50: 33.3 nM
[4]
  Emax: 70%
  EC50: 4.14 nM

## C=C(C)[C@H]1CCC(C)=C[C@@H]1c1c(O)cc(CC[Si](C)(C)CCCC)cc1O [AAC-02]
[1]; [7]
  Emax: 71.1%
[1]
  IC50: 2230 nM
[2]
  IC50: > 10000 nM
[3]
  EC50: > 10000 nM
[4]; agonist EC50 CB1 vs CB2
  selectivity for CB2 vs CB1: 500 ×
[4]
  Emax: 50.3%
  EC50: 18 nM

## Cc1c(C(=O)NN2CCOCC2)nn(-c2ccc(Cl)cc2Cl)c1-c1ccc(I)cc1 [AM281, reference compound]
[1]; [7]
  Emax, antagonist, CB1: 106.6%
[1]
  IC50: 10.5 nM

## Cc1ccc(-n2nc(C(C)(C)C)cc2NC(=O)Nc2ccc(OCCN3CCOCC3)c3ccccc23)cc1 [BIRB-796]
[5]
  TNF-α suppression: 41%

## CCCCCCC(C)(C)c1ccc([C@@H]2C[C@H](O)CC[C@H]2CCCO)c(O)c1 [CP55,940, reference compound]
[4]
  Emax: 101%

## O=C(O)[C@@H]1CCCN1C(=O)OCC1c2ccccc2-c2ccccc21 [Fmoc-Pro]
[6]
  Log P: 0.094

## C[Si]1(C)CC(C(=O)O)N(C(=O)OCC2c3ccccc3-c3ccccc32)C1 (stereo not drawn) [Fmoc-Sip]
[6]
  Log P: 1.3

## CC(C)(C)c1ccccc1 [t-butylbenzene]
[6]
  Log P: 4.0

## C[Si](C)(C)c1ccccc1 [trimethylsilyl-benzene]
[6]
  Log P: 4.7

## SR 144528 [reference compound]
[2]; [7]
  Emax, antagonist, CB2: 101.6%
